Experiments:
cMET = cMET (Homo sapiens, UniProt P08581); test: Evaluation of inhibitory activity against MET (TR-FRET); type: biochemical; settings: TR-FRET enzyme assay, cMET protein, TK peptide substrate, ATP
Protocol: In addition, in order to measure the enzyme activity inhibition for cMET, the evaluation was performed in the same manner as the enzyme activity inhibition measurement experiment for RON.
(§1) Specifically, the compound was prepared to a concentration of 1 mM in 100% DMSO and was diluted 10 times in a stepwise manner through 3-fold dilution. The compound (2 μL) diluted in a stepwise manner was added to a 96-well-plate containing 48 μL of a 1× kinase reaction buffer (50 mM HEPES (pH 7.4), 0.05% BSA, 0.005% Tween-20, 1 mM DTT, 0.5 mM MnCl2, 20 mM MgCl2).
The cMET protein was diluted to a concentration of 263 nM in a cMET storage buffer (50 mM Tris-HCl (pH 7.5), 150 mM NaCl, 0.05% Brij35, 1 mM DTT, 10% Glycerol), and then diluted again to a concentration of 2 nM in a 1× kinase reaction buffer. As a substrate cocktail, a MET-specific substrate mixed solution (5 μM TK peptide, 10 mM ATP) was prepared at a concentration 2 times the final reaction concentration.
(§2) Thereafter, a 384-well-plate was prepared, and 2.5 μL of each of the diluted compounds of Examples was added to a corresponding well of experimental group wells, and 2.5 μL of a 4% DMSO solution was dispensed into high control wells and low control wells.
(§3) Thereafter, 2.5 μL of 2 nM cMET was dispensed into each of the high control wells and the experimental group wells, and 2.5 μL of the 1× kinase reaction buffer was added to the low control wells, and all the wells were centrifuged at room temperature for 40 seconds at 1,000 RPM, and then incubated at room temperature for 20-30 minutes. Then, 5 μL of the substrate cocktail (2×) was dispensed into each well, and all the wells were centrifuged at room temperature for 40 seconds at 1,000 RPM, and then incubated at room temperature for 60 minutes. Thereafter, 5 μL of 90 mM EDTA was added to each well to terminate the reaction, and all the wells were then incubated again at room temperature for 5 minutes. Thereafter, 5 μL of a 4× phosphotyrosine antibody (Perkin Elmer) containing europium was added to each well, and all the wells were then incubated at room temperature for 60 minutes. After the incubation, the 384-well-plate was read with the Vison plate reader. In this case, the excitation wavelength was 340 nm, and the emission wavelength was 620 nm and 665 nm. The IC50 value of each compound of Examples was derived using the GraphPd Prism7 program.

RON = RON (Homo sapiens, UniProt Q04912); test: Evaluation of inhibitory activity against RON (TR-FRET); type: biochemical; settings: TR-FRET enzyme assay, RON protein, ULight-labeled Poly GT substrate, ATP
Protocol: In order to measure the inhibitory activity of each of the compounds of Examples against RON, the IC50 of each of the compounds was measured using Time-resolved fluorescence energy transfer (TR-FRET).
as §1, with “7.4), 0.01%” for “7.4), 0.05% BSA, 0.005%”, “Tween-20, 5” for “Tween-20, 1”, “mM Na3VO4, 2 mM EGTA, 10” for “mM MnCl2, 20”
The RON protein was diluted to a concentration of 49.3 nM in a RON storage buffer (50 mM Tris-HCl (pH 7.5), 150 mM NaCl, 0.5 mM EDTA, 0.02% Triton X-100), and then diluted again to a concentration of 0.4 nM in a 1× kinase reaction buffer. As a substrate cocktail, a RON-specific substrate mixed solution (40 uM ULight-labeled Poly GT, 100 nM ATP) was prepared at a concentration 2 times the final reaction concentration.
as §2
as §3, with “of 0.4” for “of 2”, “nM RON” for “nM cMET”, “of 30” for “of 90”

Sequence of cMET (P08581 25-1390): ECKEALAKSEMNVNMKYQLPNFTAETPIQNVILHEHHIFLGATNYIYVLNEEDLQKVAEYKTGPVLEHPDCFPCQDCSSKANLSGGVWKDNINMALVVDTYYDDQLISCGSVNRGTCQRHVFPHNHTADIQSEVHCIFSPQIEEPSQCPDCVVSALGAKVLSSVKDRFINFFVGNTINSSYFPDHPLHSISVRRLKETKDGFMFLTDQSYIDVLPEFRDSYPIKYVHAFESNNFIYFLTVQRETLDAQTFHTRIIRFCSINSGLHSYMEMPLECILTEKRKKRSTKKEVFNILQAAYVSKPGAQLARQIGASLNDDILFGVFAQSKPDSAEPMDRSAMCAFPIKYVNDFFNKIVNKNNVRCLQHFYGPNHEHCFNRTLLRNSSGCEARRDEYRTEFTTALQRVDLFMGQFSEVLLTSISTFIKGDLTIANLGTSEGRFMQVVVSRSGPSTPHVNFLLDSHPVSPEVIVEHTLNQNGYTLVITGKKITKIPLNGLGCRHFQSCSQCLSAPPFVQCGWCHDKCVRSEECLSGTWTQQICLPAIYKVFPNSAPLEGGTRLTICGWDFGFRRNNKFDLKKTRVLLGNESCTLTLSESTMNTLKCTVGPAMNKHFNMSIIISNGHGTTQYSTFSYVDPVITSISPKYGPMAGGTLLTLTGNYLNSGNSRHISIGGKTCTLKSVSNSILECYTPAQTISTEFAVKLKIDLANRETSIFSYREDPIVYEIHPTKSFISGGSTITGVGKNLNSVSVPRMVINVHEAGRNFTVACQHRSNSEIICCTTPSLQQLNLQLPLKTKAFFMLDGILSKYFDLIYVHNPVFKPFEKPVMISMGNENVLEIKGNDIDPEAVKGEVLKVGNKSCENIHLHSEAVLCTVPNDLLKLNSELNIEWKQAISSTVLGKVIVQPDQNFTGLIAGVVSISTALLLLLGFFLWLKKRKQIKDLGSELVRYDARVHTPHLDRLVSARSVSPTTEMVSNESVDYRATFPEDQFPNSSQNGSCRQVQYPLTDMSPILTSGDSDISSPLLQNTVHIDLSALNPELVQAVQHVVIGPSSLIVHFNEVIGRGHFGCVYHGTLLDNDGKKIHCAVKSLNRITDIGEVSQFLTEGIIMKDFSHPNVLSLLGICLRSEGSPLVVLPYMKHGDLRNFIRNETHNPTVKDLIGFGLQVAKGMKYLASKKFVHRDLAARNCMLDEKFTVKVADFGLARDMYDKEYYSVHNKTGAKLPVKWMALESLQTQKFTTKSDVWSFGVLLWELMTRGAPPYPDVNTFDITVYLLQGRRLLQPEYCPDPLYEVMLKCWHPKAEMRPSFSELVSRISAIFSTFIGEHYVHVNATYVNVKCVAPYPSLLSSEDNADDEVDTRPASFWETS
Sequence of RON (Q04912 25-1400, species assumed): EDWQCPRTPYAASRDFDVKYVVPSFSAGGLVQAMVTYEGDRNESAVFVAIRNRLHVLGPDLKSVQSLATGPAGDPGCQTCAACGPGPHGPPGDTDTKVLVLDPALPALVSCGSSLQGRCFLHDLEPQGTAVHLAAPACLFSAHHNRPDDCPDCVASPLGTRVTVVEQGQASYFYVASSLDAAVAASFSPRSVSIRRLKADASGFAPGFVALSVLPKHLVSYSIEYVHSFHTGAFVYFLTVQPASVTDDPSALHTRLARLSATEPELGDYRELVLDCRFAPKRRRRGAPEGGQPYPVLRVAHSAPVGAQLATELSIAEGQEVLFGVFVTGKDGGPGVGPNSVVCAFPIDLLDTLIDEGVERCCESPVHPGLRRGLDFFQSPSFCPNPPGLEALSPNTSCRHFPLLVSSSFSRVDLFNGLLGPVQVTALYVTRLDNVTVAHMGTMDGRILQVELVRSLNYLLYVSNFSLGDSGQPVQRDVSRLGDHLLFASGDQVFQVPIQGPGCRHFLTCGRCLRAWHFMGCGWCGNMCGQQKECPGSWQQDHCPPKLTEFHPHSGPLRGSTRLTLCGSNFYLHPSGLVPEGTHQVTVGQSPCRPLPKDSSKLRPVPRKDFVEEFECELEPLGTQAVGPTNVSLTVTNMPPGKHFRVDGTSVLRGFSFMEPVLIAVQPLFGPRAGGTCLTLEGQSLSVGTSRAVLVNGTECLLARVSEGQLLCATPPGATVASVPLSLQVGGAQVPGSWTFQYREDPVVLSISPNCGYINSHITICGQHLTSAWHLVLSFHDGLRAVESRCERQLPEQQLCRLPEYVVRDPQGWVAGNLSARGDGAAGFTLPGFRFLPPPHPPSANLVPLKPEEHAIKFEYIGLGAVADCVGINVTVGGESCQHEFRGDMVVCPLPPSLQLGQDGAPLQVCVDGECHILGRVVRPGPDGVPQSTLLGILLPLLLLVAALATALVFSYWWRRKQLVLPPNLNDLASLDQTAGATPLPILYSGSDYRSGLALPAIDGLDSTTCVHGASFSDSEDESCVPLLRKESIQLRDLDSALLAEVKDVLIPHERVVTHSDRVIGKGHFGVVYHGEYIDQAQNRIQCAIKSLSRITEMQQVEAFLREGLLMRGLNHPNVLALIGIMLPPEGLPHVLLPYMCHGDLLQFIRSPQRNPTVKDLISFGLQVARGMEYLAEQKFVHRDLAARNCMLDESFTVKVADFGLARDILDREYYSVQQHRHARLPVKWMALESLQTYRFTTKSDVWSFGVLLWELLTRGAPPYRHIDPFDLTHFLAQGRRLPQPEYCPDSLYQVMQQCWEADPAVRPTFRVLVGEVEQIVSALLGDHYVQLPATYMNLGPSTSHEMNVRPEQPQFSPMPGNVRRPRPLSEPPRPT

**Q.** How did the IC50 (cMET) turn out when `COc1ccn(-c2ccc(F)cc2)c(=O)c1C(=O)Nc1ccc(-c2ccnc(-c3ccnc(N)n3)c2)c(F)c1` [Example 15, N-(4-(2-(2-aminopyrimidin-4-yl)pyridin-4-yl)-3-fluorophenyl)-1-(4-fluorophenyl)-4-methoxy-2-oxo-1,2-dihydropyridine-3-carboxamide] was run?
**A.** 4860 nM

**Q.** `Nc1nccc(Oc2ccc(NC(=O)c3ccc(CO)n(-c4ccc(F)cc4)c3=O)cc2F)c1Cl` [Example 26, N-(4-((2-amino-3-chloropyridin-4-yl)oxy)-3-fluorophenyl)-1-(4-fluorophenyl)-6-(hydroxymethyl)-2-oxo-1,2-dihydropyridine-3-carboxamide] was tested. Which IC50 (cMET) did it give?
**A.** 3 nM

**Q.** And the IC50 (RON)?
**A.** 3 nM

**Q.** For `Nc1nccc(Oc2ccc(NC(=O)c3ccc(C(F)(F)F)n(-c4ccc(F)cc4)c3=O)cc2F)c1Cl` [Example 28, N-(4-((2-amino-3-chloropyridin-4-yl)oxy)-3-fluorophenyl)-1-(4-fluorophenyl)-2-oxo-6-(trifluoromethyl)-1,2-dihydropyridine-3-carboxamide], which IC50 (cMET) is on record?
**A.** 18 nM

**Q.** What about the IC50 (RON) of the same compound?
**A.** 8 nM

**Q.** What does the source list for `Nc1nccc(Oc2ccc(NC(=O)c3cc(C4CC4)cn(-c4ccc(F)cc4)c3=O)cc2F)c1Cl` [Example 27, N-(4-((2-amino-3-chloropyridin-4-yl)oxy)-3-fluorophenyl)-5-cyclopropyl-1-(4-fluorophenyl)-2-oxo-1,2-dihydropyridine-3-carboxamide]?
**A.** IC50 (cMET): 6 nM; IC50 (RON): 2 nM

**Q.** With `CCOc1ccn(-c2ccc(F)cc2)c(=O)c1C(=O)Nc1ccc(Nc2ccc3nc(N)sc3n2)c(F)c1` [Example 3, N-(4-((2-aminothiazolo[5,4-b]pyridin-5-yl)amino)-3-fluorophenyl)-4-ethoxy-1-(4-fluorophenyl)-2-oxo-1,2-dihydropyridine-3-carboxamide] as the compound, how does the IC50 (cMET) read?
**A.** 6720 nM

**Q.** `CCOc1ccn(-c2ccc(F)cc2)c(=O)c1C(=O)Nc1ccc(-c2ccc3[nH]ncc3c2)c(F)c1` [Example 19] was tested. Which IC50 (cMET) did it give?
**A.** 6540 nM

**Q.** For `Cc1ccc(C(=O)Nc2ccc(Oc3ncnc(N)c3Cl)c(F)c2)c(=O)n1-c1ccc(F)cc1` [Example 36, N-(4-((6-amino-5-chloropyrimidin-4-yl)oxy)-3-fluorophenyl)-1-(4-fluorophenyl)-6-methyl-2-oxo-1,2-dihydropyridine-3-carboxamide], which IC50 (cMET) is on record?
**A.** 14 nM

**Q.** What about the IC50 (RON) of the same compound?
**A.** 7 nM

**Q.** `Cc1ccc(C(=O)Nc2ccc(Oc3ccnc(N(C(=O)C4CC4)C(=O)C4CC4)c3Cl)c(F)c2)c(=O)n1-c1ccc(F)cc1` [Example 31, N-(4-((3-chloro-2-(N-(cyclopropanecarbonyl)cyclopropanecarboxamido)pyridin-4-yl)oxy)-3-fluorophenyl)-1-(4-fluorophenyl)-6-methyl-2-oxo-1,2-dihydropyridine-3-carboxamide] was tested. Which IC50 (cMET) did it give?
**A.** 3550 nM

**Q.** What does the source list for `Cc1c(C(=O)Nc2ccc(Oc3ccnc(N)c3Cl)c(F)c2)c(=O)n(-c2ccccc2)n1C` [Example 24, N-(4-((2-amino-3-chloropyridin-4-yl)oxy)-3-fluorophenyl)-1,5-dimethyl-3-oxo-2-phenyl-2,3-dihydro-1H-pyrazole-4-carboxamide]?
**A.** IC50 (cMET): 11 nM; IC50 (RON): 44 nM

**Q.** For `CCOc1ccn(-c2ccc(F)cc2)c(=O)c1C(=O)Nc1ccc(-c2ccc3c(N)n[nH]c3c2)c(F)c1` [Example 18, N-(4-(3-amino-1H-indazol-6-yl)-3-fluorophenyl)-4-ethoxy-1-(4-fluorophenyl)-2-oxo-1,2-dihydropyridine-3-carboxamide], which IC50 (cMET) is on record?
**A.** 496 nM

**Q.** And the IC50 (RON)?
**A.** 467 nM

**Q.** How did the IC50 (cMET) turn out when `Cc1ccc(C(=O)Nc2ccc(Oc3cc(Cl)nn4ccnc34)c(F)c2)c(=O)n1-c1ccc(F)cc1` [Example 6, N-(4-((6-chloroimidazo[1,2-b]pyridazin-8-yl)oxy)-3-fluorophenyl)-1-(4-fluorophenyl)-6-methyl-2-oxo-1,2-dihydropyridine-3-carboxamide] was run?
**A.** 8270 nM

**Q.** What does the source list for `Cc1ccc(C(=O)Nc2ccc(Oc3ccnc(N)c3Cl)c(F)c2)c(=O)n1-c1ccc(F)cc1` [Example 25, N-(4-((2-amino-3-chloropyridin-4-yl)oxy)-3-fluorophenyl)-1-(4-fluorophenyl)-6-methyl-2-oxo-1,2-dihydropyridine-3-carboxamide]?
**A.** IC50 (cMET): 2 nM; IC50 (RON): 1 nM

**Q.** Which IC50 (cMET) does the source give for `Cc1ccc(C(=O)Nc2ccc(NC(=O)c3cc(-c4cnn(C)c4)cnc3N)c(F)c2)c(=O)n1-c1ccc(F)cc1` [Example 34, 2-amino-N-(2-fluoro-4-(1-(4-fluorophenyl)-6-methyl-2-oxo-1,2-dihydropyridin-3-carboxamido)phenyl)-5-(1-methyl-1H-pyrazol-4-yl)nicotinamide] here?
**A.** 1560 nM

**Q.** And the IC50 (RON)?
**A.** 7880 nM

**Q.** How did the IC50 (cMET) turn out when `CCOc1ccn(-c2ccc(F)cc2)c(=O)c1C(=O)Nc1ccc(-c2ccc3nc(N)sc3n2)c(C)c1` [Example 1, N-(4-(2-aminothiazolo[5,4-b]pyridin-5-yl)-3-methylphenyl)-4-ethoxy-1-(4-fluorophenyl)-2-oxo-1,2-dihydropyridine-3-carboxamide] was run?
**A.** 5230 nM

**Q.** What about the IC50 (RON) of the same compound?
**A.** 5120 nM

**Q.** `CCOc1ccn(-c2ccc(F)cc2)c(=O)c1C(=O)Nc1ccc(-c2ccc3snc(N)c3c2)c(F)c1` [Example 21, N-(4-(3-aminobenzo[d]isothiazol-5-yl)-3-fluorophenyl)-4-ethoxy-1-(4-fluorophenyl)-2-oxo-1,2-dihydropyridine-3-carboxamide] was tested. Which IC50 (cMET) did it give?
**A.** 6030 nM

**Q.** `Cc1ccc(C(=O)Nc2ccc(-c3ccnc(-c4ccnc(N)n4)c3)c(F)c2)c(=O)n1-c1ccc(F)cc1` [Example 16, N-(4-(2-(2-aminopyrimidin-4-yl)pyridin-4-yl)-3-fluorophenyl)-1-(4-fluorophenyl)-6-methyl-2-oxo-1,2-dihydropyridine-3-carboxamide] was tested. Which IC50 (cMET) did it give?
**A.** 1490 nM

**Q.** For `Cc1ccc(C(=O)Nc2ccc(Oc3ccnc(NC(=O)C4CC4)c3Cl)c(F)c2)c(=O)n1-c1ccc(F)cc1` [Example 30, N-(4-((3-chloro-2-(cyclopropanecarboxamido)pyridin-4-yl)oxy)-3-fluorophenyl)-1-(4-fluorophenyl)-6-methyl-2-oxo-1,2-dihydropyridine-3-carboxamide], which IC50 (cMET) is on record?
**A.** 12 nM

**Q.** And the IC50 (RON)?
**A.** 25 nM

**Q.** For `Cc1c(C(=O)Nc2ccc(Oc3ccnc(N)c3Cl)c(F)c2)c(=O)n(-c2ccccc2)n1CC(C)(C)O` [Example 29, N-(4-((2-amino-3-chloropyridin-4-yl)oxy)-3-fluorophenyl)-1-(2-hydroxy-2-methylpropyl)-5-methyl-3-oxo-2-phenyl-2,3-dihydro-1H-pyrazole-4-carboxamide], which IC50 (cMET) is on record?
**A.** 54 nM

**Q.** What about the IC50 (RON) of the same compound?
**A.** 82 nM

**Q.** How did the IC50 (cMET) turn out when `Cc1ccc(C(=O)Nc2ccc(NC(=O)c3cc(Br)cnc3N)c(F)c2)c(=O)n1-c1ccc(F)cc1` [Example 32, 2-amino-5-bromo-N-(2-fluoro-4-(1-(4-fluorophenyl)-6-methyl-2-oxo-1,2-dihydropyridine-3-carboxamido)phenyl)nicotinamide] was run?
**A.** 1690 nM
